Measured values published in DBAASP.
In brackets after ≈: the same amount, converted by molar mass. Several values for one entry are separate records, joined by “and”; a condition that tells them apart may be missing. Equal entries are not always repeated. One block for each compound: values may come before it.

Columns and labels:
Test in all cases: ≥ marks a high value that may be exact or a test limit, other limits are often not marked, values filed in µg/mL are converted to µM
[1] = system: Aspergillus flavus KCTC 9471
[2] = system: Aspergillus fumigatus KCTC 6145
Bacillus subtilis = system: Bacillus subtilis
Botrytis cinerea = system: Botrytis cinerea
[3] = system: Candida albicans KCTC 7270
[4] = system: Escherichia coli O157:H7 ATCC 43895
Escherichia coli = system: Escherichia coli
Fusarium verticillioides = system: Fusarium verticillioides
[5] = system: Listeria monocytogenes KCTC 3710
Proteus vulgaris = system: Proteus vulgaris
Pseudomonas aeruginosa = system: Pseudomonas aeruginosa
Saccharomyces cerevisiae = system: Saccharomyces cerevisiae
Salmonella typhimurium = system: Salmonella typhimurium
Staphylococcus aureus = system: Staphylococcus aureus
[6] = system: Staphylococcus epidermidis
Trichosporon beigelii = system: Trichosporon beigelii
[7] = system: Bacillus subtilis KCTC 1998
[8] = system: Escherichia coli ATCC 25922
[9] = system: Pseudomonas aeruginosa ATCC 15692
[10] = system: Staphylococcus aureus ATCC 25923
Escherichia coli HB101 = system: Escherichia coli HB101
[11] = system: Leishmania major MHOM/IL/67/JERICHO-II
[12] = system: Staphylococcus aureus Cowan 1
[13] = system: Escherichia coli ATCC 11775
[14] = system: Escherichia coli ATCC 35218
[15] = system: Salmonella enterica subsp. enterica serovar Typhi Vi+
[16] = system: Salmonella enterica subsp. enterica serovar Typhimurium ATCC 14028
Bacillus cereus C737 = system: Bacillus cereus C737
Escherichia coli UB1005 = system: Escherichia coli UB1005
[17] = system: Pseudomonas aeruginosa PAO1
Aeromonas hydrophila = system: Aeromonas hydrophila
Vibrio harveyi = system: Vibrio harveyi
Vibrio parahaemolyticus = system: Vibrio parahaemolyticus

Compound: CC[C@H](C)[C@H](NC(=O)[C@H](CCCCN)NC(=O)[C@H](CO)NC(=O)[C@H](Cc1ccccc1)NC(=O)[C@H](CC(C)C)NC(=O)[C@H](CCCCN)NC(=O)[C@H](CCC(=O)O)NC(=O)[C@H](CC(C)C)NC(=O)[C@H](CCCN=C(N)N)NC(=O)[C@H](CCCCN)NC(=O)[C@H](Cc1ccccc1)NC(=O)[C@@H](NC(=O)[C@H](CCCCN)NC(=O)[C@H](CCCCN)NC(=O)[C@H](C)N)C(C)C)C(=O)N[C@@H](Cc1c[nH]c2ccccc12)C(=O)N[C@@H](CC(N)=O)C(=O)N[C@@H](CC(=O)O)C(=O)N[C@@H](CCCCN)C(N)=O [AKKVFKRLEKLFSKIWNDK]
MIC [1]: ≥ 50 µM
MIC [2]: ≥ 50 µM
MIC (Bacillus subtilis): 1.56 µM (≈ 3.71 µg/mL)
MIC (Botrytis cinerea): 6.25 µM (≈ 14.9 µg/mL)
MIC [3]: 25 µM (≈ 59.4 µg/mL)
MIC [4]: 6.25 µM (≈ 14.9 µg/mL)
MIC (Escherichia coli): 3.13 µM (≈ 7.44 µg/mL)
MIC (Fusarium verticillioides): 25 µM (≈ 59.4 µg/mL)
MIC [5]: 1.56 µM (≈ 3.71 µg/mL)
MIC (Proteus vulgaris): 3.13 µM (≈ 7.44 µg/mL)
MIC (Pseudomonas aeruginosa): 6.25 µM (≈ 14.9 µg/mL)
MIC (Saccharomyces cerevisiae): 25 µM (≈ 59.4 µg/mL)
MIC (Salmonella typhimurium): 0.78 µM (≈ 1.85 µg/mL)
MIC (Staphylococcus aureus): 6.25 µM (≈ 14.9 µg/mL)
MIC [6]: 3.13 µM (≈ 7.44 µg/mL)
MIC (Trichosporon beigelii): 1.56 µM (≈ 3.71 µg/mL)

Compound: CC[C@H](C)[C@H](NC(=O)[C@H](CCCCN)NC(=O)[C@H](CO)NC(=O)[C@H](Cc1ccccc1)NC(=O)[C@H](CC(C)C)NC(=O)[C@H](CCCCN)NC(=O)[C@H](CCC(=O)O)NC(=O)[C@H](CC(C)C)NC(=O)[C@H](CCCN=C(N)N)NC(=O)[C@H](CCCCN)NC(=O)[C@H](Cc1ccccc1)NC(=O)[C@@H](NC(=O)[C@H](CCCCN)NC(=O)[C@H](CCCCN)NC(=O)[C@H](C)N)C(C)C)C(=O)N[C@@H](Cc1c[nH]c2ccccc12)C(=O)N[C@@H](CC(N)=O)C(=O)N[C@@H](Cc1c[nH]c2ccccc12)C(=O)N[C@@H](CCCCN)C(N)=O [AKKVFKRLEKLFSKIWNWK]
MIC [1]: 25 µM (≈ 61.2 µg/mL)
MIC [2]: 25 µM (≈ 61.2 µg/mL)
MIC [7]: 2 µM (≈ 4.9 µg/mL)
MIC (Bacillus subtilis): 1.56 µM (≈ 3.82 µg/mL)
MIC (Botrytis cinerea): 3.13 µM (≈ 7.67 µg/mL)
MIC [3]: 12.5 µM (≈ 30.6 µg/mL)
MIC [8]: 2 µM (≈ 4.9 µg/mL)
MIC [4]: 3.13 µM (≈ 7.67 µg/mL)
MIC (Escherichia coli): 1.56 µM (≈ 3.82 µg/mL)
MIC (Fusarium verticillioides): 12.5 µM (≈ 30.6 µg/mL)
MIC [5]: 0.39 µM (≈ 0.955 µg/mL)
MIC (Proteus vulgaris): 3.13 µM (≈ 7.67 µg/mL)
MIC [9]: 2 µM (≈ 4.9 µg/mL)
MIC (Pseudomonas aeruginosa): 3.13 µM (≈ 7.67 µg/mL)
MIC (Saccharomyces cerevisiae): 25 µM (≈ 61.2 µg/mL)
MIC (Salmonella typhimurium): 0.39 µM (≈ 0.955 µg/mL)
MIC [10]: 2 µM (≈ 4.9 µg/mL)
MIC (Staphylococcus aureus): 1.56 µM and 3.13 µM
MIC [6]: 3.13 µM (≈ 7.67 µg/mL)
MIC (Trichosporon beigelii): 1.56 µM (≈ 3.82 µg/mL)

MIC (Escherichia coli HB101): 2.7 µM (≈ 7.97 µg/mL)
MIC [11]: 6.1 µM (≈ 18 µg/mL)
MIC [12]: 2.7 µM (≈ 7.97 µg/mL)
Compound: CC[C@H](C)[C@H](NC(=O)[C@@H](NC(=O)[C@H](CC(=O)O)NC(=O)[C@H](C)NC(=O)[C@H](C)NC(=O)[C@H](C)NC(=O)CNC(=O)[C@H](CC(C)C)NC(=O)[C@H](C)NC(=O)[C@H](C)NC(=O)[C@H](CCCCN)NC(=O)CNC(=O)[C@H](C)NC(=O)[C@H](Cc1cnc[nH]1)NC(=O)[C@H](CC(C)C)NC(=O)[C@H](C)NC(=O)[C@H](CCSC)NC(=O)[C@@H](NC(=O)CNC(=O)[C@H](CC(C)C)NC(=O)[C@H](CCCCN)NC(=O)[C@H](CCCCN)NC(=O)[C@H](CC(C)C)NC(=O)[C@H](CCSC)NC(=O)[C@@H](NC(=O)[C@H](CCCCN)NC(=O)[C@H](Cc1c[nH]c2ccccc12)NC(=O)[C@H](CC(C)C)NC(=O)[C@H](C)N)[C@@H](C)O)[C@@H](C)O)[C@@H](C)O)C(N)=O [ALWKTMLKKLGTMALHAGKAALGAAADTI]

MIC (Escherichia coli HB101): 3.6 µM (≈ 7.55 µg/mL)
MIC [11]: 17.9 µM (≈ 37.5 µg/mL)
MIC [12]: ≥ 35.9 µM
Compound: CSCC[C@H](NC(=O)[C@@H](NC(=O)CNC(=O)[C@H](CC(C)C)NC(=O)[C@H](CCCCN)NC(=O)[C@H](CCCCN)NC(=O)[C@H](CC(C)C)NC(=O)[C@H](CCSC)NC(=O)[C@@H](NC(=O)[C@H](CCCCN)NC(=O)[C@H](Cc1c[nH]c2ccccc12)NC(=O)[C@H](CC(C)C)NC(=O)[C@H](C)N)[C@@H](C)O)[C@@H](C)O)C(=O)N[C@@H](C)C(=O)N[C@@H](CC(C)C)C(=O)N[C@@H](Cc1cnc[nH]1)C(=O)N[C@@H](C)C(=O)NCC(=O)N[C@@H](CCCCN)C(N)=O [ALWKTMLKKLGTMALHAGK]

MIC [13]: 1.1 µM (≈ 2.39 µg/mL)
MIC [8]: 1.5 µM (≈ 3.26 µg/mL)
MIC [14]: 0.6 µM (≈ 1.3 µg/mL)
MIC [15]: 4 µM (≈ 8.68 µg/mL)
MIC [16]: 4 µM (≈ 8.68 µg/mL)
Compound: CC[C@H](C)[C@H](NC(=O)[C@@H]1CCCN1C(=O)[C@H](CCCN=C(N)N)NC(=O)[C@@H]1CCCN1C(=O)[C@H](Cc1cnc[nH]1)NC(=O)[C@H](CO)NC(=O)[C@@H](NC(=O)[C@@H]1CCCN1C(=O)[C@H](CCCN=C(N)N)NC(=O)[C@@H]1CCCN1C(=O)[C@H](CO)NC(=O)[C@H](Cc1ccc(O)cc1)NC(=O)[C@@H]1CCCN1C(=O)[C@H](CCCCN)NC(=O)[C@@H]1CCCN1C(=O)[C@H](CCCCN)NC(=O)CN)[C@@H](C)O)C(=O)N[C@@H](CCCN=C(N)N)C(=O)N[C@H](C(=O)O)C(C)C [GKPKPYSPRPTSHPRPIRV]

MIC (Bacillus cereus C737): ≥ 81.3 µM
MIC (Escherichia coli UB1005): ≥ 81.3 µM
MIC [17]: > 81.3 µM
Compound: CC[C@H](C)[C@H](NC(=O)[C@H](CC(=O)O)NC(=O)[C@H](Cc1ccccc1)NC(=O)[C@H](CC(C)C)NC(=O)CN)C(=O)N[C@H](C(=O)N[C@@H](CCCCN)C(=O)N[C@@H](CCCCN)C(=O)N[C@H](C(=O)N[C@H](C(=O)NCC(=O)N[C@@H](C)C(=O)N[C@@H](C)C(=O)NCC(=O)N[C@@H](CO)C(=O)N[C@@H](CC(C)C)C(N)=O)C(C)C)C(C)C)C(C)C [GLFDIVKKVVGAAGSL]

MIC (Aeromonas hydrophila): ≥ 96 µM
MIC (Bacillus subtilis): ≥ 33.9 µM
MIC (Escherichia coli): 17 µM (≈ 50.5 µg/mL)
MIC (Staphylococcus aureus): 17 µM (≈ 50.5 µg/mL)
MIC (Vibrio harveyi): 17 µM (≈ 50.5 µg/mL)
Compound: CC[C@H](C)[C@H](NC(=O)[C@H](CC(C)C)NC(=O)[C@H](CCC(=O)O)NC(=O)CNC(=O)[C@H](CC(C)C)NC(=O)[C@H](Cc1cnc[nH]1)NC(=O)CNC(=O)[C@H](CCCCN)NC(=O)[C@@H](NC(=O)[C@H](Cc1ccccc1)NC(=O)[C@H](CCCCN)NC(=O)[C@H](CCCCN)NC(=O)[C@H](CS)NC(=O)[C@H](CC(C)C)NC(=O)[C@H](CO)NC(=O)[C@H](CCCCN)NC(=O)[C@H](CC(C)C)NC(=O)[C@H](CC(C)C)NC(=O)CN)C(C)C)C(=O)N[C@@H](CCC(=O)O)C(=O)N[C@@H](CCC(=O)O)C(=O)N[C@@H](CC(C)C)C(=O)N[C@H](C(=O)N[C@H](C(=O)N[C@@H](CO)C(=O)N[C@@H](CC(=O)O)C(=O)N[C@@H](CC(=O)O)C(=O)O)[C@@H](C)O)[C@@H](C)O [GLLKSLCKKFVKGHLGELIEELTTSDD]
MIC (Vibrio parahaemolyticus): ≥ 96 µM

MIC (Aeromonas hydrophila): ≥ 96 µM
MIC (Bacillus subtilis): ≥ 96 µM
MIC (Escherichia coli): 33.9 µM (≈ 82 µg/mL)
MIC (Staphylococcus aureus): 17 µM (≈ 41 µg/mL)
MIC (Vibrio harveyi): ≥ 96 µM
Compound: CC[C@H](C)[C@H](NC(=O)[C@H](CCC(=O)O)NC(=O)[C@H](CC(N)=O)NC(=O)[C@H](CS)NC(=O)[C@@H](N)C(C)C)C(=O)NCC(=O)N[C@@H](CC(C)C)C(=O)N[C@@H](CC(C)C)C(=O)N[C@@H](CCCCN)C(=O)N[C@@H](CO)C(=O)N[C@@H](CC(C)C)C(=O)N[C@@H](CS)C(=O)N[C@@H](CCCCN)C(=O)N[C@@H](CCCCN)C(=O)N[C@@H](Cc1ccccc1)C(=O)N[C@H](C(=O)N[C@@H](CCCCN)C(=O)NCC(=O)N[C@@H](Cc1cnc[nH]1)C(=O)N[C@@H](CC(C)C)C(=O)NCC(=O)N[C@@H](CCC(=O)O)C(=O)O)C(C)C [VCNEIGLLKSLCKKFVKGHLGE]
MIC (Vibrio parahaemolyticus): ≥ 96 µM
